The source of these data is ChEMBL document CHEMBL3871299, “Design and synthesis of new piperidone grafted acetylcholinesterase inhibitors” (Bioorg Med Chem Lett, 2017).

For data set [1], the target named is T1, Acetylcholinesterase (Homo sapiens, UniProt P22303). Kind of data set: Inhibition of acetylcholinesterase (unknown origin) assessed as reduction in formation of 5-thio-2-nitrobenzoate from acetylthiocholine iodide at 5 ug/ml preincubated for 15 mins followed by substrate addition measured after 30 mins by Ellman's method.
In data set [2] the target is T1, Acetylcholinesterase. The experiment in a line: Inhibition of acetylcholinesterase (unknown origin) assessed as reduction in formation of 5-thio-2-nitrobenzoate from acetylthiocholine iodide preincubated for 15 mins followed by substrate addition measured after 30 mins by Ellman's method.
Data set [3] in a line: Cytotoxicity against human SH-SY5Y cells assessed as reduction in cell viability at 0.2 to 40 uM measured after 24 hrs by MTT assay. In kind it is toxicity, cell-based.

T1 sequence (P22303 whole entry): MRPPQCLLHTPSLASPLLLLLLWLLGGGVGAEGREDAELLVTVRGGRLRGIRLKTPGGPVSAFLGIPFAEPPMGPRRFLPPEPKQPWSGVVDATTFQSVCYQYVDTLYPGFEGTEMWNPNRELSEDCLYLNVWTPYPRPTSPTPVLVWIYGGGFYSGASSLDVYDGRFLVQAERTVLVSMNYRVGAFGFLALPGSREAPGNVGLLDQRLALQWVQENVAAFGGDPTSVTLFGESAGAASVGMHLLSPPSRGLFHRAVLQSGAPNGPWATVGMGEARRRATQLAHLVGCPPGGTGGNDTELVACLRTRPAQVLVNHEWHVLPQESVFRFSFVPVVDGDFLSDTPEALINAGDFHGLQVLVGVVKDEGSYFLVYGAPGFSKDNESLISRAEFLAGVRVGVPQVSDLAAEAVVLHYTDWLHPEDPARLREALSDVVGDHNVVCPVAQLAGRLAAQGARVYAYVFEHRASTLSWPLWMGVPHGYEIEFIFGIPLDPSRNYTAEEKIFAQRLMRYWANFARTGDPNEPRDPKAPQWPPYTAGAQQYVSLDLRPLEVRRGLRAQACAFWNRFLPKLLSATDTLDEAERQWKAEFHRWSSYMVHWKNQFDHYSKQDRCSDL

For `Cc1ccc(C=C2CNCC3=C2N=C2SC=C(c4ccccc4)N2C3c2ccc(C)cc2)cc1` (configuration not stated), the inhibition in data set [1] was determined as 45.7%.
Same read-out and setting: in the case of `Cc1cccc(CN2C/C(=C\c3ccc(Cl)cc3)C(=O)/C(=C/c3ccc(Cl)cc3)C2)c1` it was 41.6%; in that of `Cc1cccc(CN2C/C(=C\c3ccc(Br)cc3)C(=O)/C(=C/c3ccc(Br)cc3)C2)c1`, 45.7%.
For the compound `O=C1/C(=C/c2ccc(Cl)cc2)CN(Cc2ccc3ccccc3c2)C/C1=C\c1ccc(Cl)cc1`, the inhibition in data set [1] worked out at 42.4%.
As for `Cc1ccc(C2=CSC3=NC4=C(CNCC4=Cc4ccc(Cl)cc4)C(c4ccc(Cl)cc4)N23)cc1` (configuration not stated), the inhibition in data set [1] stood at 74.7%. For the same compound, the IC50 in data set [2] came to 1.09 µM. Further, in data set [3], the Activity entry is reported as “Non-Toxic”.
In the case of `Clc1ccc(C=C2CNCC3=C2N=C2SC=C(c4ccccc4)N2C3c2ccc(Cl)cc2)cc1` (configuration not stated), the inhibition in data set [1] is 41.6%.
The same measure, in the same setting: to `Clc1ccc(C=C2CNCC3=C2N=C2SC=C(c4ccc(Br)cc4)N2C3c2ccc(Cl)cc2)cc1` (configuration not stated) belongs 41.6%.
For the compound `Cc1ccc(C2=CSC3=NC4=C(CNCC4=Cc4ccc(Br)cc4)C(c4ccc(Br)cc4)N23)cc1` (configuration not stated), the inhibition in data set [1] turned out to be 68.3%. Also, the IC50 in data set [2] worked out at 1.01 µM. In addition, in data set [3], the Activity result is recorded as “Non-Toxic”.
In the same order, the values of `O=C1/C(=C/c2ccc(Br)cc2)CN(Cc2ccc3ccccc3c2)C/C1=C\c1ccc(Br)cc1` are 67.2%, 0.83 µM and “Non-Toxic”.
In the same order, the values of `Brc1ccc(C=C2CNCC3=C2N=C2SC=C(c4ccc5ccccc5c4)N2C3c2ccc(Br)cc2)cc1` (configuration not stated) are 65.7%, 0.73 µM and “Non-Toxic”.
With `Cc1ccc(C=C2CNCC3=C2N=C2SC=C(c4ccc(C)cc4)N2C3c2ccc(C)cc2)cc1` (configuration not stated), the inhibition in data set [1] was 60.4%. Moreover, the IC50 in data set [2] was determined as 1.8 µM.
Consider `Brc1ccc(C2=CSC3=NC4=C(CNCC4=Cc4ccccc4)C(c4ccccc4)N23)cc1` (configuration not stated), for which the inhibition in data set [1] turned out to be 48.7%.
For `O=C1/C(=C/c2ccccc2)CN(Cc2ccc3ccccc3c2)C/C1=C\c1ccccc1`, the inhibition in data set [1] is 67.9%. The IC50 in data set [2] was determined as 1.93 µM.
For `C(=C1CNCC2=C1N=C1SC=C(c3ccc4ccccc4c3)N1C2c1ccccc1)c1ccccc1` (configuration not stated), the inhibition in data set [1] turned out to be 41.8%.
For `Cc1ccc(/C=C2\CN(Cc3cccc(C)c3)C/C(=C\c3ccc(C)cc3)C2=O)cc1`, the inhibition in data set [1] worked out at 59.8%. Besides, the IC50 in data set [2] amounted to 3.22 µM.
In the same order, the values of `Cc1cccc(CN2C/C(=C\c3ccccc3)C(=O)/C(=C/c3ccccc3)C2)c1` are 63.1% and 3.18 µM.
For `Cc1ccc(C2=CSC3=NC4=C(CNCC4=Cc4ccccc4)C(c4ccccc4)N23)cc1` (configuration not stated), the inhibition in data set [1] was 42.1%.
Still for that read-out and setting: in the case of `C(=C1CNCC2=C1N=C1SC=C(c3ccccc3)N1C2c1ccccc1)c1ccccc1` (configuration not stated) it was 48.6%.
As to `Cc1ccc(C=C2CNCC3=C2N=C2SC=C(c4ccc5ccccc5c4)N2C3c2ccc(C)cc2)cc1` (configuration not stated), the inhibition in data set [1] came out at 69.6%. In addition, in data set [2], the IC50 stood at 0.98 µM. Besides, the Activity result in data set [3] is “Non-Toxic”.
`Cc1ccc(C=C2CNCC3=C2N=C2SC=C(c4ccc(Br)cc4)N2C3c2ccc(C)cc2)cc1` (configuration not stated): the inhibition in data set [1] was determined as 64.6%. In addition, the IC50 in data set [2] turned out to be 2.27 µM.
As to `Brc1ccc(C=C2CNCC3=C2N=C2SC=C(c4ccc(Br)cc4)N2C3c2ccc(Br)cc2)cc1` (configuration not stated), the inhibition in data set [1] was found to be 48.3%.
For `Brc1ccc(C=C2CNCC3=C2N=C2SC=C(c4ccccc4)N2C3c2ccc(Br)cc2)cc1` (configuration not stated), in data set [1], the inhibition was found to be 66.7%. The IC50 in data set [2] came to 1.48 µM.
In the same order, the values of `Cc1ccc(/C=C2\CN(Cc3ccc4ccccc4c3)C/C(=C\c3ccc(C)cc3)C2=O)cc1` are 72.6% and 1.59 µM.
In the case of `Clc1ccc(C=C2CNCC3=C2N=C2SC=C(c4ccc5ccccc5c4)N2C3c2ccc(Cl)cc2)cc1` (configuration not stated), the inhibition in data set [1] is 62.8%. Also, the IC50 in data set [2] was found to be 1.35 µM.
